{"source": "ChEMBL document CHEMBL4627312", "about": "“Anilinopyrazines as potential mitochondrial uncouplers” (Bioorg Med Chem Lett, 2020)", "key": {"L6 [1]": {"system": "L6", "assay": "Induction of mitochondrial uncoupling in rat L6 cells assessed as oxygen consumption rate measured after 45 to 90 mins by seahorse XFe96 analyser based assay relative to control", "conditions": "Mitochondria"}, "L6 [2]": {"system": "L6", "assay": "Induction of mitochondrial uncoupling in rat L6 cells assessed as oxygen consumption rate at 0.01 to 50 uM measured after 45 to 90 mins by seahorse XFe96 analyser based assay", "conditions": "Mitochondria"}, "[3]": {"assay": "Induction of mitochondrial uncoupling in rat L6 cells assessed as oxygen consumption rate measured after 45 to 90 mins by seahorse XFe96 analyser based assay", "format": "mitochondria, Mitochondria"}}, "note": "Active and inactive are the calls of the source. The calls are words filed in the database; no cut-off is given here.", "data": [{"compound": "Fc1ccc(C(F)(F)F)cc1Nc1nccnc1Nc1cc(C(F)(F)F)ccc1F", "values": [{"measurement": "Emax", "setting": "L6 [1]", "value": 100, "unit": "%"}]}, {"compound": "FC(F)(F)Oc1ccccc1Nc1nccnc1Nc1ccccc1OC(F)(F)F", "values": [{"measurement": "Emax", "setting": "L6 [1]", "value": 114, "unit": "%"}, {"measurement": "Activity", "setting": "L6 [2]", "value": "inactive"}]}, {"compound": "FC(F)(F)Oc1cccc(Nc2cnc(Nc3cccc(OC(F)(F)F)c3)cn2)c1", "values": [{"measurement": "Emax", "setting": "L6 [1]", "value": 101, "unit": "%"}, {"measurement": "Activity", "setting": "L6 [2]", "value": "inactive"}]}, {"compound": "Fc1cc(C(F)(F)F)ccc1Nc1nccnc1Nc1ccc(C(F)(F)F)cc1F", "values": [{"measurement": "EC50", "setting": "[3]", "value": 8.5, "unit": "µM"}, {"measurement": "Emax", "setting": "L6 [1]", "value": 164, "unit": "%"}]}, {"compound": "FC(F)(F)c1cccc(Nc2nc(Nc3cccc(C(F)(F)F)c3)nc(Nc3cccc(C(F)(F)F)c3)n2)c1", "values": [{"measurement": "Emax", "setting": "L6 [1]", "value": 103, "unit": "%"}, {"measurement": "Activity", "setting": "L6 [2]", "value": "inactive"}]}, {"compound": "FC(F)(F)c1ccc(Nc2cncc(Nc3ccc(C(F)(F)F)cc3)n2)cc1", "values": [{"measurement": "Emax", "setting": "L6 [1]", "value": 103, "unit": "%"}, {"measurement": "Activity", "setting": "L6 [2]", "value": "inactive"}]}, {"compound": "COc1ccccc1Nc1nc(Nc2ccccc2OC)nc(Nc2ccccc2OC)n1", "values": [{"measurement": "Emax", "setting": "L6 [1]", "value": 103, "unit": "%"}, {"measurement": "Activity", "setting": "L6 [2]", "value": "inactive"}]}, {"compound": "COc1ccccc1Nc1nccnc1Nc1ccccc1OC", "values": [{"measurement": "Emax", "setting": "L6 [1]", "value": 102, "unit": "%"}]}, {"compound": "FC(F)(F)c1cc(Nc2cncc(Nc3cc(C(F)(F)F)cc(C(F)(F)F)c3)n2)cc(C(F)(F)F)c1", "values": [{"measurement": "Emax", "setting": "L6 [1]", "value": 105, "unit": "%"}, {"measurement": "Activity", "setting": "L6 [2]", "value": "inactive"}]}, {"compound": "FC(F)(F)Oc1ccc(Nc2cnc(Nc3ccc(OC(F)(F)F)cc3)cn2)cc1", "values": [{"measurement": "Emax", "setting": "L6 [1]", "value": 102, "unit": "%"}, {"measurement": "Activity", "setting": "L6 [2]", "value": "inactive"}]}, {"compound": "COc1cccc(Nc2nc(Nc3cccc(OC)c3)nc(Nc3cccc(OC)c3)n2)c1", "values": [{"measurement": "Emax", "setting": "L6 [1]", "value": 103, "unit": "%"}, {"measurement": "Activity", "setting": "L6 [2]", "value": "inactive"}]}, {"compound": "FC(F)(F)c1cccc(Nc2nccnc2Nc2cccc(C(F)(F)F)c2)c1", "values": [{"measurement": "EC50", "setting": "[3]", "value": 3, "unit": "µM"}, {"measurement": "Emax", "setting": "L6 [1]", "value": 181, "unit": "%"}]}, {"compound": "Fc1ccc(Nc2nccnc2Nc2ccc(F)cc2F)c(F)c1", "values": [{"measurement": "Emax", "setting": "L6 [1]", "value": 109, "unit": "%"}, {"measurement": "Activity", "setting": "L6 [2]", "value": "inactive"}]}, {"compound": "FC(F)(F)c1ccc(Nc2nc(Nc3ccc(C(F)(F)F)cc3)nc(Nc3ccc(C(F)(F)F)cc3)n2)cc1", "values": [{"measurement": "Emax", "setting": "L6 [1]", "value": 100, "unit": "%"}, {"measurement": "Activity", "setting": "L6 [2]", "value": "inactive"}]}, {"compound": "COc1ccc(Nc2nc(Nc3ccc(OC)cc3)nc(Nc3ccc(OC)cc3)n2)cc1", "values": [{"measurement": "Emax", "setting": "L6 [1]", "value": 104, "unit": "%"}, {"measurement": "Activity", "setting": "L6 [2]", "value": "inactive"}]}, {"compound": "FC(F)(F)c1ccc(Nc2nccnc2Nc2ccc(C(F)(F)F)cc2)cc1", "values": [{"measurement": "EC50", "setting": "[3]", "value": 2.5, "unit": "µM"}, {"measurement": "Emax", "setting": "L6 [1]", "value": 260, "unit": "%"}]}, {"compound": "FC(F)(F)Oc1cccc(Nc2cncc(Nc3cccc(OC(F)(F)F)c3)n2)c1", "values": [{"measurement": "Emax", "setting": "L6 [1]", "value": 105, "unit": "%"}, {"measurement": "Activity", "setting": "L6 [2]", "value": "inactive"}]}, {"compound": "FC(F)(F)Oc1cccc(Nc2nccnc2Nc2cccc(OC(F)(F)F)c2)c1", "values": [{"measurement": "EC50", "setting": "[3]", "value": 12, "unit": "µM"}, {"measurement": "Emax", "setting": "L6 [1]", "value": 343, "unit": "%"}]}, {"compound": "COc1cccc(Nc2nccnc2Nc2cccc(OC)c2)c1", "values": [{"measurement": "Emax", "setting": "L6 [1]", "value": 101, "unit": "%"}]}, {"compound": "Fc1cccc(Nc2nccnc2Nc2cccc(F)c2)c1", "values": [{"measurement": "Emax", "setting": "L6 [1]", "value": 106, "unit": "%"}, {"measurement": "Activity", "setting": "L6 [2]", "value": "inactive"}]}, {"compound": "FC(F)(F)Oc1ccc(Nc2nccnc2Nc2ccc(OC(F)(F)F)cc2)cc1", "values": [{"measurement": "EC50", "setting": "[3]", "value": 5.9, "unit": "µM"}, {"measurement": "Emax", "setting": "L6 [1]", "value": 258, "unit": "%"}]}, {"compound": "FC(F)(F)c1cccc(Nc2cnc(Nc3cccc(C(F)(F)F)c3)cn2)c1", "values": [{"measurement": "Emax", "setting": "L6 [1]", "value": 140, "unit": "%"}, {"measurement": "Activity", "setting": "L6 [2]", "value": "inactive"}]}, {"compound": "Fc1ccc(Nc2nccnc2Nc2ccc(F)cc2)cc1", "values": [{"measurement": "Emax", "setting": "L6 [1]", "value": 101, "unit": "%"}, {"measurement": "Activity", "setting": "L6 [2]", "value": "inactive"}]}, {"compound": "Fc1cccc(Nc2nccnc2Nc2cccc(F)c2F)c1F", "values": [{"measurement": "Emax", "setting": "L6 [1]", "value": 108, "unit": "%"}, {"measurement": "Activity", "setting": "L6 [2]", "value": "inactive"}]}, {"compound": "FC(F)(F)c1ccccc1Nc1nccnc1Nc1ccccc1C(F)(F)F", "values": [{"measurement": "Emax", "setting": "L6 [1]", "value": 104, "unit": "%"}]}, {"compound": "FC(F)(F)c1cc(Nc2nccnc2Nc2cc(C(F)(F)F)cc(C(F)(F)F)c2)cc(C(F)(F)F)c1", "values": [{"measurement": "EC50", "setting": "[3]", "value": 17, "unit": "µM"}, {"measurement": "Emax", "setting": "L6 [1]", "value": 148, "unit": "%"}]}, {"compound": "FC(F)(F)c1ccc(Nc2cnc(Nc3ccc(C(F)(F)F)cc3)cn2)cc1", "values": [{"measurement": "Emax", "setting": "L6 [1]", "value": 107, "unit": "%"}, {"measurement": "Activity", "setting": "L6 [2]", "value": "inactive"}]}, {"compound": "Fc1ccccc1Nc1nc(Nc2ccccc2F)nc(Nc2ccccc2F)n1", "values": [{"measurement": "Emax", "setting": "L6 [1]", "value": 102, "unit": "%"}, {"measurement": "Activity", "setting": "L6 [2]", "value": "inactive"}]}, {"compound": "FC(F)(F)Oc1ccc(Nc2cncc(Nc3ccc(OC(F)(F)F)cc3)n2)cc1", "values": [{"measurement": "Emax", "setting": "L6 [1]", "value": 107, "unit": "%"}, {"measurement": "Activity", "setting": "L6 [2]", "value": "inactive"}]}]}
